Assay results published in patent EP4740933A1, “CLEANING COMPOSITION AND USE THEREOF” (Suzhou Oulit Biopharm Co., Ltd., priority 2023, dated 2025).
Where “and” joins values, the source holds several entries; their conditions need not be identical. Identical values can stand only once. Like-named read-outs stand apart in the source and are kept apart here.

What was measured:
[1] = Foaming test, modified Ross-Miles method (GB/T7462-1994); type: physicochemical; conditions: 2.5 g/L, 50 ± 0.5 °C
Protocol: Conditions: test solution concentration: 2.5 g/L; test temperature: 50 ± 0.5 °C; test water: soft water/hard water.

[2] = system: Reconstructed Human Epidermis; assay: In vitro skin irritation: reconstructed human epidermis test (OECD TG 439); type: cell-based; design: Viability Mean: concentration or dose not given beside the values
Bovine Corneal = assay: Eye irritation: Bovine Corneal Opacity and Permeability Test (OECD TG 437); conditions: positive control, no test concentration printed (/)
From the text: Basis: Bovine Corneal Opacity and Permeability Test, OECD TG 437 (2020).

Compound | Foam volume at 30 s ([1]; soft water) [mL] | Foam volume at 3 min ([1]; soft water) [mL] | Foam volume at 5 min ([1]; soft water) [mL] | IL-1α content [2] [pg/mL] | Viability Mean [2] [%] | other results
potassium cocoyl glycinate [GCK30] | 430 | 390 | 360 |  |  | 
sodium cocoyl alaninate [ACS30] | 330 | 200 | 140 |  |  | 
sodium cocoyl glycinate [GC30] | 460 | 430 | 400 |  |  | 
sodium cocoylmethyl taurate [CMT-35] | 310 | 260 | 230 |  |  | 
Lauroyl alanine-arginine | 380 | 340 | 335 |  |  | Foam volume at 30 s ([1]; hard water): 570 mL and 580 mL; Foam volume at 3 min ([1]; hard water): 540 mL and 560 mL and 565 mL; Foam volume at 5 min ([1]; hard water): 530 mL and 545 mL and 550 mL
CCCCCCCCCCCC(=O)N[C@@H](C)C(=O)O [Lauroyl alanine (LA), Lauroyl alanine] |  |  |  | 2.07 ± 0.59 | 95.52 | 
CCCCCCCCCCCCOS(=O)(=O)[O-].[Na+] [Sodium dodecyl sulfate (K12), Sodium dodecyl sulfate] |  |  |  | 96.26 ± 3.21 |  | Viability Mean ([2]; human): 40.79%
CCCCCCCCCCCCOS(=O)(=O)[O-].[Na+] [Positive control (PC)] |  |  |  | 89.45 ± 10.06 | 4.03 | 
Sodium laureth sulfate [Sodium laureth sulfate (AES)] | 310 | 250 | 210 | 20.59 ± 5.27 | 57.12 | 
CCO [Positive control (absolute ethanol), absolute ethanol] |  |  |  |  |  | In vitro irritancy score (IVIS) (Bovine Corneal): 32.3545
CCCCCCCCCCCC(=O)NC(C)C(=O)[O-].[Na+] (stereo not shown) [LA-NaOH] |  |  |  | 3.88 ± 5.28 | 86.99 | 
CCCCCCCCCCCC(=O)N[C@@H](C)C(=O)O.N=C(N)NCCC[C@H](N)C(=O)O [LA-Arg] |  |  |  | 3.5 ± 0.38 | 97.40 | 
